# Structures can show the parent of a compound that is named as a salt.
# Columns and labels:
# GK diabetic rats = assay: Glucose tolerance test in GK diabetic rats (Example 2); type: in vivo, rat; conditions: for glucose levels in glucose tolerance test (in words): GK diabetic rats; for Glucose tolerance test, plasma glucose, Fasting / Glucose tolerance test, plasma glucose, 0.5 hour / Glucose tolerance test, plasma glucose, 1 hour / Glucose tolerance test, plasma glucose, 2 hours / Glucose tolerance test, plasma glucose, 3 hours: Mean ± STD, DC 22.5 mg/kg BW, Metformin 34 mg/kg BW by gavage; for Glucose tolerance test, plasma glucose, Fasting: 20 days (combination in second 10 days); for Glucose tolerance test, plasma glucose, 0.5 hour / Glucose tolerance test, plasma glucose, 1 hour / Glucose tolerance test, plasma glucose, 2 hours / Glucose tolerance test, plasma glucose, 3 hours: after glucose 2 g/kg BW, 20 days
# Procedure: Food and water were provided ad libitum.
# The 36 GK rats were divided into 4 groups based on body weight (BW) and plasma glucose level. […] All animals were treated at 10:00 for 20 days.
# (§1) The four groups of animals were kept in the same room (temp 23±3° C., relative humidity 65±1%) in different cages with wire mesh bottoms to reduce coprophagia throughout the experiment. The rats were subjected to fasting overnight from 10:00 pm to 09:30 of the following day before being subjected to a glucose tolerance test. The rats were treated with glucose 2 g/kg BW in 2 ml tap water at 09:30 for the glucose tolerance test and the blood was collected from the tail vein at 0.5, 1, 2, and 3 hours after glucose injection. Plasma glucose concentrations were determined by Glucotrendr2 equipment (Roche Diagnostics, Basel, Switzerland). Plasma insulin concentrations were determined by radioimmunoassay (Insulin RIA Kit, NO:0410, purchased from Shanghai Radioimmunoassay Research Institution). […] The “p” value is the comparison with the control group.
# Insulin = assay: Plasma insulin by radioimmunoassay in GK diabetic rats (Example 2); type: in vivo, rat; conditions: for Fasting Insulin: Mean ± STD, DC 22.5 mg/kg BW, Metformin 34 mg/kg BW
# Procedure: (§2) The 36 GK rats were divided into 4 groups based on body weight (BW) and plasma glucose level. […] All animals were treated at 10:00 for 20 days. […] Plasma glucose concentrations were determined by Glucotrendr2 equipment (Roche Diagnostics, Basel, Switzerland). Plasma insulin concentrations were determined by radioimmunoassay (Insulin RIA Kit, NO:0410, purchased from Shanghai Radioimmunoassay Research Institution). The effects on plasma glucose level are shown in Table 4, the effects on plasma insulin and adiponectin levels are shown in Table 5, and the effects on different tissues are shown in Table 6. The “p” value is the comparison with the control group.
# diabetic patients = assay: Open-label randomized trial in patients with diabetes type II (Example 3); type: in vivo, human
# Procedure: The cysteamine alone (DC) group was treated with 540 mg/day of cysteamine hydrochloride.
# adiponectin = assay: Adiponectin level in GK diabetic rats (Example 2); type: in vivo, rat; conditions: for Adiponectin: Mean ± STD, DC 22.5 mg/kg BW, Metformin 34 mg/kg BW
# Procedure: The 36 GK rats were divided into 4 groups based on body weight (BW) and plasma glucose level. Group 1 (control, n=10) was treated with saline by gavage (2 ml/rat) Group 2 (DC, n=6) was treated with cysteamine hydrochloride by gavage (22.5 mg/kg BW in 2 ml tap water); Group 3 (Metformin, Met, n=10) was treated with Metformin by gavage (34 mg/kg BW in 2 ml tap water); Group 4 (Met+DC, n=10) was treated with Metformin 34 mg/kg BW/day in 2 ml tap water for the first 10 days and then was treated with both cysteamine hydrochloride 22.5 mg/kg BW plus Metformin 34 mg/kg BW in 2 ml tap water for the second 10 days. All animals were treated at 10:00 for 20 days.
# as §1
# [1] = tested on: glucose transporter (glut4); assay: Glucose transporter (glut4) expression in tissues of GK diabetic rats (Example 2); type: in vivo, rat; conditions: for expression of total glut4 in liver, muscles, adipocytes (in words): GK rats; for glut4 expression, adipocyte, fold changes compared with control level / glut4 expression, liver, fold changes compared with control level / glut4 expression, muscle, fold changes compared with control level: Mean ± STD, GK diabetic rats
# Procedure: as §2
# [2] = tested on: Goto-Kakizaki Wistar rats (GK rats); assay: Oral glucose tolerance test and starving plasma glucose in GK rats (Example 1); type: in vivo, rat
# Procedure: Nineteen male Goto-Kakizaki Wistar rats (GK rats) with weights of 300±20 g were kept in steel cages, 3-4 rats per cage. The cages were changed every two days. Indoor temperature and relative humidity was kept at 23±3° C. and 65±1% respectively. Feed and drinking water was provided. GK rats were permitted a one-month period for adaptation.
# One day prior to experimentation, at 17:00, all of the feed was removed from all groups, but not the drinking water. On the second day, at 09:30, starving plasma glucose was measured for all GK rats. At 10:00, glucose tolerance test (2 g/kg BW) was performed and the plasma glucose level was measured as well for all GK rats. On the third day, the GK rats of the control group were orally administered a saline solution (2 ml/rat) and the GK rats in treatment I and II groups were orally administered a solution of Metformin (17 mg/kg body weight (BW), 2 ml once pre day at 09:30). This regimen was performed for the following several days. On the ninth day, starving plasma glucose was measured and oral glucose tolerance test was performed again for all GK rats in all groups.
# On the tenth day, the regimen for the GK rats in the treatment II group was changed to an oral administration of Metformin with cysteamine hydrochloride (Metformin 17 mg/kg BW, cysteamine hydrochloride 15 mg/kg BW) for the following 6 days, while the regimen for the control group and the treatment I group remained unchanged. This regimen was performed for six days.
# Six days following the change in regimen, starving plasma glucose was measured and glucose tolerance tests were performed, and blood and tissue samples were collected (liver, duodenum, pancreas gland, fat, and muscle) for all GK rats in all groups. Blood samples were stored at 4° C. for three hours and centrifuged for ten minutes at 3500 rpm. Then, the serum was collected and stored at −20° C. Tissue samples were placed in liquid nitrogen once collected and then stored in −80° C.
# The glucose tolerance tests that were performed included the steps of starving the GK rats overnight. Next day at 09:30, starving plasma glucose was measured. At 10:00, oral administration of a glucose solution (2 g/kg BW) was performed. Blood samples were collected via tail vein at 0, 0.5, 1, 2, and 3 hours and then performed with the plasma glucose testing equipment.
# [3] = cysteamine hydrochloride 540 mg/day, two months
# [4] = pre-treatment minus post-treatment
# [5] = late-phase, Metformin 17 mg/kg BW, cysteamine hydrochloride 15 mg/kg BW oral for 6 days
# [6] = mid-phase, Treatment I group, 6 days oral Metformin 17 mg/kg BW, glucose 2 g/kg BW
# [7] = mid-phase, Treatment II group (Metformin 17 mg/kg BW only, before cysteamine hydrochloride was added)
smiles,measurement,setting,value
NCCS [cysteamine hydrochloride],glucose levels in glucose tolerance test (in words),GK diabetic rats,did not affect
same,"Glucose tolerance test, plasma glucose, Fasting",GK diabetic rats,5.80 ± 0.36 mmol/L
same,"Glucose tolerance test, plasma glucose, 0.5 hour",GK diabetic rats,16.68 ± 1.1 mmol/L
same,"Glucose tolerance test, plasma glucose, 1 hour",GK diabetic rats,15.68 ± 0.8 mmol/L
same,"Glucose tolerance test, plasma glucose, 2 hours",GK diabetic rats,11.00 ± 0.8 mmol/L
same,"Glucose tolerance test, plasma glucose, 3 hours",GK diabetic rats,8.33 ± 0.64 mmol/L
same,insulin levels (in words),Insulin,did not affect
same,Fasting Insulin,Insulin,22.46 ± 2.65 IU/L
same,C peptide (CP) (in words),diabetic patients,decreases significantly
same,HOMA (Homeostasis Model Assessment) (in words),diabetic patients,decreases significantly
same,blood uric acid (UA) levels (in words),diabetic patients,decreases significantly
same,fasting insulin (FINS) (in words),diabetic patients,decreases significantly
same,insulin-like growth factor 1 (IGF1) (in words),diabetic patients,decreases significantly
same,microalbuminuria (in words),diabetic patients,obvious but not statistically significantly
same,"24 h Microalbuminuria, Post-treatment",diabetic patients; [3],30.97 ± 25.12
same,"FBS (fasting blood sugar), Post-treatment",diabetic patients; [3],8.21 ± 2.43
same,"FCP (C peptide), Post-treatment",diabetic patients; [3],557 ± 119
same,"FINS (fasting insulin), Post-treatment",diabetic patients; [3],13.25 ± 6.36
same,"HOMA (Homeostasis Model Assessment), Post-treatment",diabetic patients; [3],5.43 ± 3.19
same,"IGF, Post-treatment",diabetic patients; [3],44.37 ± 7.28
same,"UA (blood uric acid), Post-treatment",diabetic patients; [3],359 ± 60.16
same,"24 h Microalbuminuria, Paired Difference",diabetic patients; [4],11.77 ± 40.73
same,"FBS, Paired Difference",diabetic patients; [4],−0.69 ± 2.11
same,"FCP, Paired Difference",diabetic patients; [4],182 ± 164
same,"FINS, Paired Difference",diabetic patients; [4],22.14 ± 19.39
same,"HOMA, Paired Difference",diabetic patients; [4],6.51 ± 4.94
same,"IGF, Paired Difference",diabetic patients; [4],4.99 ± 5.12
same,"UA, Paired Difference",diabetic patients; [4],29.5 ± 37.87
same,adiponectin (in words),adiponectin,significantly increased
same,Adiponectin,adiponectin,4318 ± 590 ng/mL
same,"expression of total glut4 in liver, muscles, adipocytes (in words)",[1],significantly increase
same,"glut4 expression, adipocyte, fold changes compared with control level",[1],2.7 ± 1.16 fold
same,"glut4 expression, liver, fold changes compared with control level",[1],3.77 ± 3.15 fold
same,"glut4 expression, muscle, fold changes compared with control level",[1],1.5 ± 0.74 fold
CN(C)C(=N)N=C(N)N [Metformin],duodenal plasma glucose levels and insulin resistance (in words),"[2]; GK rats, oral administration","to some extent, lowers"
same,"Glucose tolerance test, plasma glucose, 0.5 hour",[2]; [5],12.98
same,"Glucose tolerance test, plasma glucose, 1 hour",[2]; [5],13.42
same,"Glucose tolerance test, plasma glucose, 2 hours",[2]; [5],8.6
same,"Glucose tolerance test, plasma glucose, 3 hours",[2]; [5],6.67
same,"Glucose tolerance test, plasma glucose, Starving",[2]; [5],4.75
same,"Glucose tolerance test, plasma glucose, Starving","[2]; mid-phase, Treatment I group, 6 days oral Metformin 17 mg/kg BW",4.98
same,"Glucose tolerance test, plasma glucose, 0.5 hour",[2]; [6],15.68
same,"Glucose tolerance test, plasma glucose, 1 hour",[2]; [6],15.93
same,"Glucose tolerance test, plasma glucose, 2 hours",[2]; [6],10.55
same,"Glucose tolerance test, plasma glucose, 3 hours",[2]; [6],8.5
same,"Glucose tolerance test, plasma glucose, 0.5 hour",[2]; [7],15.65
same,"Glucose tolerance test, plasma glucose, 1 hour",[2]; [7],15.8
same,"Glucose tolerance test, plasma glucose, 2 hours",[2]; [7],10.55
same,"Glucose tolerance test, plasma glucose, 3 hours",[2]; [7],8.37
same,"Glucose tolerance test, plasma glucose, Starving",[2]; [7],5.03
same,glucose levels in glucose tolerance test (in words),GK diabetic rats,statistically significantly different
same,"Glucose tolerance test, plasma glucose, Fasting",GK diabetic rats,5.53 ± 0.53 mmol/L
same,"Glucose tolerance test, plasma glucose, 0.5 hour",GK diabetic rats,15.24 ± 1.34 mmol/L
same,"Glucose tolerance test, plasma glucose, 1 hour",GK diabetic rats,13.98 ± 0.95 mmol/L
same,"Glucose tolerance test, plasma glucose, 2 hours",GK diabetic rats,9.62 ± 0.83 mmol/L
same,"Glucose tolerance test, plasma glucose, 3 hours",GK diabetic rats,7.71 ± 1.37 mmol/L
same,insulin levels (in words),Insulin,"decreased, but not statistically significant"
same,Fasting Insulin,Insulin,18.75 ± 3.98 IU/L
same,insulin-like growth factor 1 (IGF1) (in words),diabetic patients,decrease
same,adiponectin (in words),adiponectin,not
same,Adiponectin,adiponectin,3917 ± 416 ng/mL
same,"expression of total glut4 in liver, muscles, adipocytes (in words)",[1],"increased, but not significantly"
same,"glut4 expression, adipocyte, fold changes compared with control level",[1],2.14 ± 1.39 fold
same,"glut4 expression, liver, fold changes compared with control level",[1],2.43 ± 1.85 fold
same,"glut4 expression, muscle, fold changes compared with control level",[1],1.38 ± 0.67 fold

# From patent US8188151B2, “Methods for treating diabetes” (Omega Bio-Pharma (I.P.3) Limited, priority 2003, dated 2012)
